What was measured:
[1] = target: ROCK2 (Homo sapiens (Human), UniProt O75116); assay: ROCK assay (LABCHIP peptide phosphorylation), ROCK2; assay type: biochemical; conditions: 5 μM ATP, 1.5 μM peptide substrate
[2] = target: ROCK1 (Homo sapiens (Human), UniProt Q13464); assay: ROCK assay (LABCHIP peptide phosphorylation), ROCK1; assay type: biochemical; conditions: 5 μM ATP, 1.5 μM peptide substrate; read-out: ROCK1 IC50
ROCK1, sequence (Q13464 whole entry, species assumed): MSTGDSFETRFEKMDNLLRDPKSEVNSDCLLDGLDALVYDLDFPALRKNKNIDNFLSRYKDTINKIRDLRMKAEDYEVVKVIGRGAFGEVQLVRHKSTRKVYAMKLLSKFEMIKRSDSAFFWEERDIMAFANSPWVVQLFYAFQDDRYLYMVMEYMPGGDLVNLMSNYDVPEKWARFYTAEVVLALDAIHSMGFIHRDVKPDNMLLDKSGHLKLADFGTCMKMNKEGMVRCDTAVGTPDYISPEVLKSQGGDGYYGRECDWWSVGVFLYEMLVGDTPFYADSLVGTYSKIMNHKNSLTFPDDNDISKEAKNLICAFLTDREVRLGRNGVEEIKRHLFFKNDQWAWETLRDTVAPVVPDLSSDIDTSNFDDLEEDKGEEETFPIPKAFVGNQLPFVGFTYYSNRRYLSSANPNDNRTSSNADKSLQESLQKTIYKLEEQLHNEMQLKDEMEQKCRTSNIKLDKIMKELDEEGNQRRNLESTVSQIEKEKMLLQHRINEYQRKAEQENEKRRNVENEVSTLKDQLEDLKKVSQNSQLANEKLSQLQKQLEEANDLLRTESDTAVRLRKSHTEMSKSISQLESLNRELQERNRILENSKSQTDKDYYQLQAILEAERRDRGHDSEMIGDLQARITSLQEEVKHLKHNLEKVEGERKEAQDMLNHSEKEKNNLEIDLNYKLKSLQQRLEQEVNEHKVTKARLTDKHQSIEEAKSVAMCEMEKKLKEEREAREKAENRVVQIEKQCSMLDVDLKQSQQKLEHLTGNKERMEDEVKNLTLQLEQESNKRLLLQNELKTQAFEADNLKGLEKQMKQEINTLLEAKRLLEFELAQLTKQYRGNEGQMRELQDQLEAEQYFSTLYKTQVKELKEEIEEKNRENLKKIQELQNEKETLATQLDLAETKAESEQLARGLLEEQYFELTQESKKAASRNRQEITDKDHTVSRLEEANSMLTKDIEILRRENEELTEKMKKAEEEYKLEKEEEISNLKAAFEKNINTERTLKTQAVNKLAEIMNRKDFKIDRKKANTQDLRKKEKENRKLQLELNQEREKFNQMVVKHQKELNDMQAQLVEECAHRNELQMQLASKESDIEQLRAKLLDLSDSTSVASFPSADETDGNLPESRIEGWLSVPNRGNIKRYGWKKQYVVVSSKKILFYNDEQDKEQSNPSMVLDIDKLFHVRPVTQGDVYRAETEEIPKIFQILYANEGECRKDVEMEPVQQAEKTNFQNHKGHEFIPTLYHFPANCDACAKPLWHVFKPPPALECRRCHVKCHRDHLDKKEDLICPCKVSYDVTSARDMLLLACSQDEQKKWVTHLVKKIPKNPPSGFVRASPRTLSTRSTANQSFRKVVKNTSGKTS

ROCK2, sequence (O75116 whole entry, species assumed): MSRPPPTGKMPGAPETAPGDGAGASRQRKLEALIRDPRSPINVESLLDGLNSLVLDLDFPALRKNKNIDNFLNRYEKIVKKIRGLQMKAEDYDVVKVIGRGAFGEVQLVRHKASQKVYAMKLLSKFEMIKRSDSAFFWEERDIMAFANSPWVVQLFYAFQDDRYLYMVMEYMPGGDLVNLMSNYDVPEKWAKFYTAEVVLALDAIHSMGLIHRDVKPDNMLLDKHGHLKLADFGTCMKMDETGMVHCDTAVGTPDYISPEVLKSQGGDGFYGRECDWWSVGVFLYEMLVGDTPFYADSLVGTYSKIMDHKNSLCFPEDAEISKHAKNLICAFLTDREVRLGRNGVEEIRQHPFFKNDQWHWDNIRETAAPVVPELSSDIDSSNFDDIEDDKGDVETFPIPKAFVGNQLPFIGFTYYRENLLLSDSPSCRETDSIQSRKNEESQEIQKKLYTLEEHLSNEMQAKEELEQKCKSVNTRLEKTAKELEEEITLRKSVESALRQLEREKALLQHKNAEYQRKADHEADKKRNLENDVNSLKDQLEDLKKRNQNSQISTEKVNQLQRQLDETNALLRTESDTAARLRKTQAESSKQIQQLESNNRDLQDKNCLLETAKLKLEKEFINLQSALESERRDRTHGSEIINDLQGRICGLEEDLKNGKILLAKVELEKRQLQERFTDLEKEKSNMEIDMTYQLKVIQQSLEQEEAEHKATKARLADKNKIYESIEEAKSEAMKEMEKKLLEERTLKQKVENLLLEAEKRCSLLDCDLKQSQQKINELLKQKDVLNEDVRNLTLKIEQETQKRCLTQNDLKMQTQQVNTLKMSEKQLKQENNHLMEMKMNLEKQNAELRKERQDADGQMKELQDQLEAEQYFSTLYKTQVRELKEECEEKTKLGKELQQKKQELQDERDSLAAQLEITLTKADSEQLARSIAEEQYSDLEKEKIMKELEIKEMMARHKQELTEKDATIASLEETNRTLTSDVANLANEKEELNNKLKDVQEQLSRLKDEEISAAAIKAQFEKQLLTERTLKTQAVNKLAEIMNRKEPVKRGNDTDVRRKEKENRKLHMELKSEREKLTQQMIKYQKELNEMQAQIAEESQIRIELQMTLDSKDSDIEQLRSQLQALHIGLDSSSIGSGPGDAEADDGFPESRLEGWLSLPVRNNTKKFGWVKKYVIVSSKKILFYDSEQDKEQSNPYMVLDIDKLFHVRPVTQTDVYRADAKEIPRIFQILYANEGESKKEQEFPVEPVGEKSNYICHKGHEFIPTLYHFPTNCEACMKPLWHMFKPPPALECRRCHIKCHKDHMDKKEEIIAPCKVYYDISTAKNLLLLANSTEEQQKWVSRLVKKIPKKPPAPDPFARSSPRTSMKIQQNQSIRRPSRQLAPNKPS

IC50 [1] [nM]	IC50 [2] [nM]	Compound
101 to 1000	101 to 1000	O=C(Nc1ccc(-c2n[nH]c(=O)c3ccccc23)cc1)c1cn(C2CCNCC2)nn1 [Example 372, N-(4-(4-Oxo-3,4-dihydrophthalazin-1-yl)phenyl)-1-(piperidin-4-yl)-1H-1,2,3-triazole-4-carboxamide]
0.1 to 100	1000 to 50000	CC(C)(O)Cn1cc(C(=O)Nc2ccc(-c3n[nH]c(=O)c4ccccc34)cc2)cn1 [Example 377, 1-(2-Hydroxy-2-methylpropyl)-N-(4-(4-oxo-3,4-dihydrophthalazin-1-yl)phenyl)-1H-pyrazole-4-carboxamide]
0.1 to 100	101 to 1000	COCC(O)Cn1cc(C(=O)Nc2ccc(-c3n[nH]c(=O)c4ccccc34)cc2)cn1 (centres unmarked) [Example 379, 1-(2-Hydroxy-3-methoxypropyl)-N-(4-(4-oxo-3,4-dihydrophthalazin-1-yl)phenyl)-1H-pyrazole-4-carboxamide]
0.1 to 100	101 to 1000	O=C(Nc1ccc(-c2n[nH]c(=O)c3ccccc23)cc1)c1cnn(CC(O)(C(F)(F)F)C(F)(F)F)c1 [Example 380, N-(4-(4-Oxo-3,4-dihydrophthalazin-1-yl)phenyl)-1-(3,3,3-trifluoro-2-hydroxy-2-(trifluoromethyl)propyl)-1H-pyrazole-4-carboxamide]
0.1 to 100	0.1 to 100	CC(C)(C)n1cc(C(=O)Nc2ccc(-c3n[nH]c(=O)c4ccccc34)cc2)cn1 [Example 381, 1-(tert-Butyl)-N-(4-(4-oxo-3,4-dihydrophthalazin-1-yl)phenyl)-1H-pyrazole-4-carboxamide]
0.1 to 100	101 to 1000	O=C(Nc1ccc(-c2n[nH]c(=O)c3ccccc23)cc1)c1cnn(C2CCOCC2)c1 [Example 384, N-(4-(4-Oxo-3,4-dihydrophthalazin-1-yl)phenyl)-1-(tetrahydro-2H-pyran-4-yl)-1H-pyrazole-4-carboxamide]
0.1 to 100	101 to 1000	O=C(Nc1ccc(-c2n[nH]c(=O)c3ccccc23)cc1)c1cnn(CC(F)F)c1 [Example 386, 1-(2,2-Difluoroethyl)-N-(4-(4-oxo-3,4-dihydrophthalazin-1-yl)phenyl)-1H-pyrazole-4-carboxamide]
0.1 to 100	101 to 1000	O=C(Nc1ccc(-c2n[nH]c(=O)c3ccccc23)cc1)c1cnn(-c2ccc(Cl)cc2)c1 [Example 388, 1-(4-Chlorophenyl)-N-(4-(4-oxo-3,4-dihydrophthalazin-1-yl)phenyl)-1H-pyrazole-4-carboxamide]
0.1 to 100	101 to 1000	O=C(Nc1ccc(-c2n[nH]c(=O)c3ccccc23)cc1)c1cnn(C2COC2)c1 [Example 389, 1-(Oxetan-3-yl)-N-(4-(4-oxo-3,4-dihydrophthalazin-1-yl)phenyl)-1H-pyrazole-4-carboxamide]
0.1 to 100	101 to 1000	O=C(Nc1ccc(-c2n[nH]c(=O)c3ccccc23)cc1)c1cnn(C2CCOC2)c1 (centres unmarked) [Example 390, N-(4-(4-Oxo-3,4-dihydrophthalazin-1-yl)phenyl)-1-(tetrahydrofuran-3-yl)-1H-pyrazole-4-carboxamide]
0.1 to 100	0.1 to 100	O=C(Nc1ccc(-c2n[nH]c(=O)c3ccccc23)cc1)c1cnn(C2C3CCC2CC3)c1 (centres unmarked) [Example 392, 1-(Bicyclo[2.2.1]heptan-7-yl)-N-(4-(4-oxo-3,4-dihydrophthalazin-1-yl)phenyl)-1H-pyrazole-4-carboxamide]
0.1 to 100	0.1 to 100	O=C(Nc1ccc(-c2n[nH]c(=O)c3ccccc23)cc1)c1cnn([C@H]2C[C@@H]3CC[C@H]2C3)c1 [Example 393, 1-((1S,2S,4R)-Bicyclo[2.2.1]heptan-2-yl)-N-(4-(4-oxo-3,4-dihydrophthalazin-1-yl)phenyl)-1H-pyrazole-4-carboxamide]

Compound	IC50 [1] [nM]	IC50 [2] [nM]
O=C(Nc1ccc(-c2n[nH]c(=O)c3ccccc23)cc1)N1CC2(CCNCC2)c2ccccc21 [Example 371, N-(4-(4-Oxo-3,4-dihydrophthalazin-1-yl)phenyl)spiro[indoline-3,4′-piperidine]-1-carboxamide]	101 to 1000	101 to 1000
